Consider seven compounds from paper PMC6696413 (Molecules, 2019).

By IC50 is commonly meant the midpoint of a concentration-inhibition curve.

Like-named read-outs stand apart in the source and are kept apart here.

Holding throughout (type): biochemical
The target in assay [1] is acetylcholinesterase (Homo sapiens, UniProt P22303). As to the kind of experiment: biochemical.
In assay [2] the target is α-glucosidase. Put plainly: α-Glucosidase inhibitory activity experiment (PNPG, 405 nm). To be noted: 96-well plate, PBS pH 7.4, 37 °C, PNPG substrate; acarbose positive control. As for the experimental part:
In a 96-well plate, group A was added 20 μL of 0.1 mol/L PBS (phosphate buffered saline (pH 7.4)), 20 μL of the sample (standard solution dissolved in DMSO to the concentration of 1.0 mg/mL) and 20 μL of α-glucosidase as a sample group (n = 3); Group B was added 40 μL of 0.1 mol/L PBS and 20 μL of the sample as the control group (n = 3); Group C was added 40 μL 0.1 mol/L PBS and 20 μL α-glucosidase as blank group (n = 3); after incubation for 15 min at 37 °C, then 2.5 mmol/L PNPG glycoside was added to each well and incubated at 37 °C. The reaction was stopped by adding 80 μL of a 0.2 mol/L Na2CO3 solution to each well after 15 min.

In assay [3] the target is tyrosinase. Put plainly: Tyrosinase inhibitory activity experiment (L-tyrosine, 405 nm). To be noted: 96-well plate, PBS, L-tyrosine substrate, 37 °C 30 min; kojic acid positive control. As for the experimental part: In a 96-well plate, group A was added 80 μL of 0.1 mol/L PBS, 50 μL of solvent (solvent used to dissolve the sample: DMSO) and 50 μL of tyrosinase as a blank group (n = 2); group B was added 130 μL of 0.1 mol/L PBS and 50 μL of solvent as blank background group (n = 2); group C was added with 80 μL of 0.1 mol/L PBS, 50 μL of the sample (standard solution dissolved in DMSO to the concentration of 1.0 mg/mL) and 50 μL of tyrosinase as the experimental group (n = 2); group D were added 130 μL of 0.1 mol/L PBS and 50 μL of the sample as experimental background group (n = 2); finally, 20 μL of substrate (L-tyrosine) was added to each well to trigger the reaction, and the 96-well plate was further incubated at 37 °C.

Setting [4] is: 96-well plate, PBS, ACTI and DTNB, 37 °C 20 min, huperzine A positive control, read-out: Acetylcholinesterase inhibitory activity IC50 (converted).

acetylcholinesterase, sequence (P22303 32-614, species assumed): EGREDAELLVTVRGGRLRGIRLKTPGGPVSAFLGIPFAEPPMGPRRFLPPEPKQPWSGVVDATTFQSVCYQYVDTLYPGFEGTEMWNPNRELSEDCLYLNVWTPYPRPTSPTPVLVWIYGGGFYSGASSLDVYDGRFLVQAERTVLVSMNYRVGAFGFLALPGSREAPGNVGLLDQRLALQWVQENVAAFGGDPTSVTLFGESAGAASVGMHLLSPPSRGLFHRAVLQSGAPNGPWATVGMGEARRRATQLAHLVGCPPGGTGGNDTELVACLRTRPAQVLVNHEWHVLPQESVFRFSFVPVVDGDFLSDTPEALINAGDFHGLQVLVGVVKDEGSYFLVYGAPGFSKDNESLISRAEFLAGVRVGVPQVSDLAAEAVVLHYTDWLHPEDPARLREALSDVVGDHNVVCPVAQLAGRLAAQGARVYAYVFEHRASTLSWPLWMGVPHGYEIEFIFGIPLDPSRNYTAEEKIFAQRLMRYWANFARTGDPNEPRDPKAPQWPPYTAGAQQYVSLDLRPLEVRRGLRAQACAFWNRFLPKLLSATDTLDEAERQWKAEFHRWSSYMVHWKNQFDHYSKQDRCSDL

Consider `C[C@@H]1O[C@@H](OC[C@H]2O[C@@H](Oc3c(-c4ccc(O)c(O)c4)oc4cc(O)cc(O)c4c3=O)[C@H](O)[C@@H](O)[C@@H]2O)[C@H](O)[C@H](O)[C@H]1O` [Compound 7, rutin], for which the half-maximal inhibitory concentration (IC50) in assay [1] is 0.806 mM.
Turning to `OCC1OC(OC2C(CO)OC(OC3C(CO)OC(OC4(CO)OC(CO)C(O)C4O)C(O)C3O)C(O)C2O)C(O)C(O)C1O` [Compound 12, O-α-D-glucopyranosyl-(1→4)-α-D-glucopyranosyl-(1→4)-α-D-glucopyranosyl-(1→2)-β-D-fructofuranoside], the “α-glucosidase activity inhibition IC50” value in assay [2] came out at 444.88 µg/mL. For the same compound, in assay [3], the “Tyrosinase inhibitory activity IC50” value came out at 1750.08 µg/mL. Further, the IC50 in assay [1] (setting [4]) is 0.761 mM.
Turning to `CC(C)[C@@H](C)/C=C/[C@@H](C)[C@H]1CC[C@@H]2[C@]1(C)CC[C@H]1[C@]23C=C[C@]2(C[C@@H](O)CC[C@]12C)OO3` [Compound 8, ergosterol peroxide], in assay [2], the “α-glucosidase activity inhibition IC50” value was 452.50 µg/mL. Further, the “Tyrosinase inhibitory activity IC50” value in assay [3] is 202.37 µg/mL. In addition, in assay [1] (setting [4]), the IC50 is 1.17 mM.
Turning to `O=c1c(O)c(-c2ccc(O)cc2)oc2cc(O)cc(O)c12` [Compound 3, kaempferol], the IC50 in assay [1] is 1.76 mM.
Take `CC#CC#CC#CC#CC#CC(CO)O[C@@H]1O[C@H](CO)[C@@H](O)[C@H](O)[C@H]1O` (stereo partly drawn) [Compound 10, 2-β-D-glucopyranosyloxy-1-hydroxytrideca-3,5,7,9,11-pentayne]: the “α-glucosidase activity inhibition IC50” value in assay [2] is 492.11 µg/mL. Moreover, the IC50 in assay [1] (setting [4]) is 1.45 mM.
Turning to `COC1OC(CNC2C(OC)OC(CO)C(O)C2O)C(O)C(O)C1O` [Compound 11, α-D-Alt-p-OMe (N2-6) α-D-Gle-p-OMe], the “α-glucosidase activity inhibition IC50” value in assay [2] was 318.44 µg/mL. Moreover, in assay [3], the “Tyrosinase inhibitory activity IC50” value stood at 302.42 µg/mL. The IC50 in assay [1] (setting [4]) is 1.4 mM.
Take `O=c1cc(-c2ccc(O)c(O)c2)oc2cc(O)cc(O)c12` [Compound 1, luteolin]: the “Tyrosinase inhibitory activity IC50” value in assay [3] stood at 1643.11 µg/mL. In assay [1], this compound had a concentration for half-maximal inhibition (IC50) of 1.66 mM.
